Assay results taken from US20170050957A1, “4-AMINO-6-(HETEROCYCLIC)PICOLINATES AND 6-AMINO-2-(HETEROCYCLIC)PYRIMIDINE-4-CARBOXYLATES AND THEIR USE AS HERBICIDES” (Dow AgroSciences LLC, priority 2013, published 2017).
Where two headings read alike, the source gives them in different places.

Columns and labels:
[1] = tested on: Key Broadleaf Weed and Crop Species; assay: Post-emergent Test II herbicidal activity (Table 15); type: in vivo; conditions: post-emergence, 336 h, 14 d; for pest or weed control at 35 g/ha: 35 g ai/ha; for pest or weed control at 70 g/ha: 70 g ai/ha; for pest or weed control at 140 g/ha: 140 g ai/ha
Procedure, shortened: (§1)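 Visual injury rating (0 = none, 100% = complete kill) made 14 d after treatment, relative to untreated plants. Compounds in an acetone/DMSO/aqueous crop-oil/surfactant spray, at top rate and serial 1/2×-1/16× rates, were applied at 187 L/ha overhead to first-second true leaf plants raised 7-21 d in greenhouse.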

[2] = tested on: Key Grass and Sedge Weeds as well as Grass Crops; assay: Post-emergent Test II herbicidal activity (Table 16); type: in vivo; conditions: post-emergence, 336 h, 14 d; for pest or weed control at 35 g/ha: 35 g ai/ha; for pest or weed control at 70 g/ha: 70 g ai/ha; for pest or weed control at 140 g/ha: 140 g ai/ha
Procedure, shortened: as §1

[3] = Abutilon theophrasti, velvetleaf (Abutilon theophrasti), read-out: Visual Growth Reduction (%) 14 Days After Application, ABUTH
[4] = Amaranthus retroflexus, redroot pigweed (Amaranthus retroflexus), read-out: Visual Growth Reduction (%) 14 Days After Application, AMARE
[5] = Brassica napus, oilseed rape, canola (Brassica napus), read-out: Visual Growth Reduction (%) 14 Days After Application, BRSNN
[6] = Chenopodium album, lambsquarters (Chenopodium album), read-out: Visual Growth Reduction (%) 14 Days After Application, CHEAL
[7] = Euphorbia heterophylla, wild poinsettia (Euphorbia heterophylla), read-out: Visual Growth Reduction (%) 14 Days After Application, EPHHL
[8] = Helianthus annuus, sunflower (Helianthus annuus), read-out: Visual Growth Reduction (%) 14 Days After Application, HELAN
[9] = Cyperus esculentus, yellow nutsedge (Cyperus esculentus), read-out: Visual Growth Reduction (%) 14 Days After Application, CYPES
[10] = Echinochloa crus-galli, barnyardgrass (Echinochloa crus-galli), read-out: Visual Growth Reduction (%) 14 Days After Application, ECHCG
[11] = Oryza sativa, rice (Oryza sativa), read-out: Visual Growth Reduction (%) 14 Days After Application, ORYSA
[12] = Setaria faberi, giant foxtail (Setaria faberi), read-out: Visual Growth Reduction (%) 14 Days After Application, SETFA
[13] = Triticum aestivum, wheat, spring (Triticum aestivum), read-out: Visual Growth Reduction (%) 14 Days After Application, TRZAS

**Q.** With COc1c(N)nc(-c2ccc3cc[nH]c3c2)nc1C(=O)O [Compound 1.33] as the molecule, how does the melting point read?
**A.** The melting point was 154 to 157 °C.

**Q.** What about the pest or weed control at 35 g/ha [1, 3] of the same molecule?
**A.** Its pest or weed control at 35 g/ha is 0 to 29%.

**Q.** What about the pest or weed control at 70 g/ha [1, 3] of the same molecule?
**A.** Its pest or weed control at 70 g/ha is 0 to 29%.

**Q.** What about the pest or weed control at 140 g/ha [1, 3] of the same molecule?
**A.** The pest or weed control at 140 g/ha was 0 to 29%.

**Q.** And the pest or weed control at 35 g/ha [1, 4]?
**A.** Its pest or weed control at 35 g/ha is 60 to 74%.

**Q.** What about the pest or weed control at 70 g/ha [1, 4] of the same molecule?
**A.** Its pest or weed control at 70 g/ha is 60 to 74%.

**Q.** And the pest or weed control at 140 g/ha [1, 4]?
**A.** Its pest or weed control at 140 g/ha is 75 to 84%.

**Q.** What about the pest or weed control at 35 g/ha [1, 5] of the same molecule?
**A.** The pest or weed control at 35 g/ha was 95 to 100%.

**Q.** And the pest or weed control at 70 g/ha [1, 5]?
**A.** The pest or weed control at 70 g/ha was 95 to 100%.

**Q.** And the pest or weed control at 140 g/ha [1, 5]?
**A.** Its pest or weed control at 140 g/ha is 95 to 100%.

**Q.** And the pest or weed control at 35 g/ha [1, 6]?
**A.** The pest or weed control at 35 g/ha was 0 to 29%.

**Q.** What about the pest or weed control at 70 g/ha [1, 6] of the same molecule?
**A.** Its pest or weed control at 70 g/ha is 45 to 59%.

**Q.** What about the pest or weed control at 140 g/ha [1, 6] of the same molecule?
**A.** Its pest or weed control at 140 g/ha is 60 to 74%.

**Q.** What about the pest or weed control at 35 g/ha [1, 7] of the same molecule?
**A.** The pest or weed control at 35 g/ha was 45 to 59%.

**Q.** What about the pest or weed control at 70 g/ha [1, 7] of the same molecule?
**A.** Its pest or weed control at 70 g/ha is 60 to 74%.

**Q.** And the pest or weed control at 140 g/ha [1, 7]?
**A.** Its pest or weed control at 140 g/ha is 75 to 84%.

**Q.** And the pest or weed control at 35 g/ha [1, 8]?
**A.** The pest or weed control at 35 g/ha was 60 to 74%.

**Q.** And the pest or weed control at 70 g/ha [1, 8]?
**A.** Its pest or weed control at 70 g/ha is 60 to 74%.

**Q.** What about the pest or weed control at 140 g/ha [1, 8] of the same molecule?
**A.** The pest or weed control at 140 g/ha was 75 to 84%.

**Q.** What about the pest or weed control at 35 g/ha [2, 9] of the same molecule?
**A.** The pest or weed control at 35 g/ha was 0 to 29%.

**Q.** And the pest or weed control at 70 g/ha [2, 9]?
**A.** The pest or weed control at 70 g/ha was 0 to 29%.

**Q.** And the pest or weed control at 140 g/ha [2, 9]?
**A.** Its pest or weed control at 140 g/ha is 0 to 29%.

**Q.** And the pest or weed control at 35 g/ha [2, 10]?
**A.** The pest or weed control at 35 g/ha was 0 to 29%.

**Q.** What about the pest or weed control at 70 g/ha [2, 10] of the same molecule?
**A.** Its pest or weed control at 70 g/ha is 0 to 29%.

**Q.** And the pest or weed control at 140 g/ha [2, 10]?
**A.** Its pest or weed control at 140 g/ha is 0 to 29%.

**Q.** And the pest or weed control at 35 g/ha [2, 11]?
**A.** Its pest or weed control at 35 g/ha is 0 to 29%.

**Q.** What about the pest or weed control at 70 g/ha [2, 11] of the same molecule?
**A.** Its pest or weed control at 70 g/ha is 0 to 29%.

**Q.** And the pest or weed control at 140 g/ha [2, 11]?
**A.** Its pest or weed control at 140 g/ha is 0 to 29%.

**Q.** And the pest or weed control at 35 g/ha [2, 12]?
**A.** Its pest or weed control at 35 g/ha is 0 to 29%.

**Q.** And the pest or weed control at 70 g/ha [2, 12]?
**A.** The pest or weed control at 70 g/ha was 0 to 29%.

**Q.** What about the pest or weed control at 140 g/ha [2, 12] of the same molecule?
**A.** The pest or weed control at 140 g/ha was 0 to 29%.

**Q.** And the pest or weed control at 35 g/ha [2, 13]?
**A.** Its pest or weed control at 35 g/ha is 0 to 29%.

**Q.** And the pest or weed control at 70 g/ha [2, 13]?
**A.** Its pest or weed control at 70 g/ha is 0 to 29%.

**Q.** What about the pest or weed control at 140 g/ha [2, 13] of the same molecule?
**A.** The pest or weed control at 140 g/ha was 30 to 44%.
